The source of these data is patent US7033597B2, “Intracellular delivery of biological effectors” (Université de Lausanne, priority 2000, dated 2006).

Where no end group is shown, it is not given here. Where only a bound is given, the exact number is not on record here.

Type in all cases: cell-based
The subject of experiment [1] is βTC-3 cells. The experiment can be described thus: Immunocytochemistry and fluorescence studies of oximes. As to conditions: fluorescence studies. The method, then:
Single phages isolated according to the enrichment scheme above were amplified. The phage peptides and one of oximes 1–6 were added and incubated for 24 hours with cells in culture medium. Medium was then washed off and cells fixed in cold methanol-acetone (1:1) for 5 minutes. Antibodies directed against the phage capsid or against biotin (peptides) were used with a fluorescein-conjugated (phage) or Texas Red labeled (peptides) secondary antibody. Classical fluorescence microscopic studies and confocal microscopic assays were performed.
Oximes 1–3 were first tested for their entry into βTC-3 cells. […] The superiority of oxime 3 may be due to the flexibility of the PEG spacer, which increases binding to the receptors on the cells.
Oximes 4–6, which are similar to oxime 3, were then synthesized and assayed for binding avidity and entry efficiency.

In another experiment the test system is βTC-3 cell line. The experiment can be described thus: Panning of phage display library on βTC-3 cells, occurrence of recovered phages. As for the experimental part: (§1) A library of 3×10^8 independent phages displaying random 15-mer epitopes at the surface of the capsids was generated using standard procedures (e.g., in T7 415 or the T7 413b phage, Novagen). See Smith and Scott, Methods Enzymol. 217:228 (1993). Phages were amplified then purified by polyethylene glycol (PEG) precipitation and finally resuspended at a concentration of 10^10 infective particles per μl in Tris-EDTA buffer (10:1 mM, TE) as described (by Smith and Scott, supra). Phages (10^12) were added to cells in culture medium for 1 to 24 hours. Longer incubation times were preferred to favor isolation of phages that escaped proteolytic degradation in endocytotic vesicles. Following binding and internalization, cells were washed and non-internalized phages were destroyed by digestion with subtilisin (3 mg/ml) (44). Following extensive washing, internalized phages were then recovered by lysing cells in a buffer containing 2% deoxycholate, 10 mM Tris-HC1 and 2mM EDTA, pH 8.0. Recovered phages were finally amplified in E. coli cells (XL-1-Blue) and purified as described above. This preparation of selected phages was then used for a second round of panning. Three to five sequential rounds were performed to obtain enrichment of specific phage-bearing peptide sequences.
The pancreatic β-cell line βTC-3 was panned with the phage display library mentioned herein. […] Panning experiments using βTC-3 cells were performed with 10^9 phages used at each step of the enrichment procedure. The number of phages recovered at 0 ° C.
The occurrence of phages recovered after three steps of panning in the βTC-3 cell line is seen in Table 2.

The subject of experiment [2] is βTC-3 cells. The experiment can be described thus: Titration of phage P1 incubated with βTC-3 cells. The method, then: as §1
The ratio of input/recovered phages is also shown.

A further experiment relates to A549. The experiment can be described thus: Specificity of phage uptake, internalized and recovered phages. As to conditions: 10^8 phages incubated 16 hours. As for the experimental part: as §1
(§2) Determination of the specificity of uptake was performed by titrating the number of recovered phages in 5 different cell lines.

The test system of another experiment is HeLa. Described as above. The note with it: 10^8 phages incubated 16 hours. The method, then:
as §1, §2

For another experiment, the system named is HepG2. The description is as above. The note with it: 10^8 phages incubated 16 hours. The method, then:
as §1, §2

Another experiment concerns WiDr. Described as above. The note with it: 10^8 phages incubated 16 hours. The method, then:
as §1, §2

The subject of the next experiment is βTC-3. Described as above. The method, then:
as §1, §2

The next experiment concerns 5 different cell lines. The experiment can be described thus: Specificity of phage uptake across the cell lines. As to conditions: βTC-3 vs HeLa, WiDr, HepG2, A549. The method, then:
as §1, with “sequences. […]” for “sequences.”

On to “Oxime 3: tetraoxime with four copies of RRTK, two-unit PEG spacer between peptide and core 1, FITC reporter (RRTK-OH; not fully specified (N-terminus, bridges); also: tetraoxime: four RRTK copies joined by thioether to Cys of branched trilysine core 1, core carries aminooxyacetyl-Lys(FITC) via oxime bond)”, for which the “binding to receptors on the cell surface” value with βTC-3 cells [1] is on record as “clearly bound to the receptors on the surface of βTC-3 cells”.
For the substance RKLR [Oxime P6], the “occurrence of phages recovered after three steps of panning” value in the experiment with βTC-3 cell line is given as 17%.
Same read-out and setting: with RRPK [Oxime P66] the figure was 5.5%.
Regarding RRTK [Oxime P1], in the experiment on βTC-3 cell line, the “occurrence of phages recovered after three steps of panning” value was found to be 61%. For the same substance, in the experiment on βTC-3 cells [2] (incubation 1 h), the “% Recovered” value is reported as 0.01%. Besides, the “initial phage input recovered” value in the experiment with βTC-3 cells [2] (titration experiments) is not above 10%. For the same substance, the Phages recovered with A549 is 10^3; in the experiment with HeLa it was <1 × 10^2; in the experiment on HepG2, less than 10; with WiDr, 2 × 10^2; in the experiment on βTC-3 (βTC-3, 10^8 phages incubated 16 hours), 1 × 10^7. For the same substance, the efficiency of internalization result with βTC-3 (phage experiments, βTC-3 cells) was “low”. Further, in the experiment on βTC-3 (phage experiments, βTC-3 cells), the uptake by cells entry is reported as “taken up specifically by βTC-3 cells via receptor-mediated endocytosis”. The “uptake by βTC-3 cells relative to any other cell line tested” value in the experiment with 5 different cell lines is 10,000 to 1,000,000 fold.
